From ChEMBL document CHEMBL1240477, “Discovery of novel CDK1 inhibitors by combining pharmacophore modeling, QSAR analysis and in silico screening followed by in vitro bioassay” (Eur J Med Chem, 2010)
pIC50: −log10 of the molar value.

Target: Cyclin-dependent kinase 1 (Homo sapiens, UniProt P06493)
Assay: Inhibition of CDK1

Chain of Cyclin-dependent kinase 1 (P06493 whole entry): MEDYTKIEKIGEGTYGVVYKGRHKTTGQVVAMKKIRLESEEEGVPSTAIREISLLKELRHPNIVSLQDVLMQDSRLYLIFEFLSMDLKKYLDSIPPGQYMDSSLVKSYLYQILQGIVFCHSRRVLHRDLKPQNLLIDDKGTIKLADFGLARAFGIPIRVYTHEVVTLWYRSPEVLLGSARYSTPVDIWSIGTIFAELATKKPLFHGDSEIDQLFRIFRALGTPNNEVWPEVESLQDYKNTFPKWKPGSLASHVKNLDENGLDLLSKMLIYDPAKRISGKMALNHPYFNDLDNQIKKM

Row | SMILES | pIC50
1 | O=C(NCCCO)c1cc(Cl)ccc1O | 5.60
2 | OCCN(CCO)Cc1cc(Cl)c2cccnc2c1O | 5.49
3 | O=Cc1cc(CCCCCCc2ccc(O)c(C=O)c2)ccc1O | 5.31
4 | C[C@H](N[C@@H](C)COc1ccccc1)[C@@H](O)c1ccc(O)cc1 | 5.54
5 | COc1cc(OC)nc(NC(=O)NS(=O)(=O)c2cc(NC=O)ccc2C(=O)N(C)C)n1 [FORAMSULFURON] | 5.44
6 | O=c1c(O)c(-c2ccc(O)c(O)c2)oc2cc(O)cc(O)c12 [QUERCETIN] | 6.35

The next lines start with the values.

Row | pIC50 | SMILES
7 | 5.85 | OCCNC(=S)Nc1ccc(C(F)(F)F)cc1
8 | 5.60 | OCCSC(=S)Nc1ccc(Cl)c(Cl)c1
9 | 6.08 | CCN(CCO)CCCNc1ccnc2cc(Cl)ccc12
10 | 6.04 | COC(=O)c1cc(NC(C)=O)ccc1S(=O)(=O)c1ccc(NC(C)=O)cc1C(=O)OC
11 | 5.68 | Cc1cc2[nH]c(=S)n([C@@H]3O[C@H](CO)[C@@H](O)[C@H]3O)c2cc1C
